The text below walks through data of patent US7087768B2, “Fumagillol derivatives and preparing method thereof” (Equispharm Co., Ltd., priority 2001, dated 2006).

The structures appear in SMILES notation. Values after ≈ are worked out from the molar mass of the structure shown.

For the first assay, the system named is HUVECs (human umbilical vein endothelial cells). Kind of assay: Inhibitory effect of fumagillol derivative on HUVEC cell growth (colorimetry). The format is cell-based. Conditions: Homo sapiens, HUVEC, HUVEC growth, cultured 2–3 days with compound, absorption at 490 nm; read-out: IC50. On the procedure: Using the HUVECs (human umbilical vein endothelial), the effect of the fumagillol derivative of the present invention on cell growth was evaluated.
The HUVECs were added to M199 medium supplemented with 20% FBS (fetal bovine serum), 100 U/ml penicillin, 100 μg/ml streptomycin, 1.5 g/L sodium bicarbonate, 0.1 mg/ml endothelial cell growth supplement (Sigma) and 0.1 mg/ml heparin (Sigma), after which the cells were incubated in an incubator at 37° C. under 5% CO2. Cells were subcultured a maximum of 8 times before being discarded.
In order to evaluate inhibitory activity of the fumagillin derivative on growth of HUVECs, the inventive compound was dissolved in DMSO and its concentration was adjusted from 10 mM to 1 mM. Cells were aliquotted to 96 well plates at a density of 2×10^3 cells per well and incubated for about 12–24 hours to be properly attached to the plate. Thereafter, the medium was replaced with new medium. The cells were treated with the compound obtained from each of the above examples at various concentration ranges of from 10 μM to […], and cultured for 2–3 days, followed by removing 100 μl of the medium from each well.
Colorimetry was performed to determine the extent of cell growth. The cells on each plate was added with 20 μl of aqueous one solution and then incubated at 37° C. under 5% CO2 for 2 hours. Using a 96-well plate reader, absorption was measured at 490 nm.
As such, a conventional TNP-470 having angiogenesis inhibitory effect was used as a control.
For the molecule `CO[C@@H]1C(OC(=O)CNC2CC2)CC[C@](O)(CCl)[C@H]1C1(C)OC1CC=C(C)C` (stereo in doubt) [Ex. 78, 4-((cyclopropylamino)acetyl)oxy-2-(1,2-epoxy-1,5-dimethyl-4-hexenyl)-3-methoxy-1-chloromethyl-1-cyclohexanol], the IC50 worked out at 0.014 ng/mL (≈ 0.0337 nM).

On to `CO[C@@H]1C(OC(=O)CNC2CCC2)CC[C@](O)(CCl)[C@H]1C1(C)OC1CC=C(C)C` (stereo in doubt) [Ex. 79, 4-((cyclobutylamino)acetyl)oxy-2-(1,2-epoxy-1,5-dimethyl-4-hexenyl)-3-methoxy-1-chloromethyl-1-cyclohexanol], for which the IC50 is 0.037 ng/mL (≈ 0.086 nM).

As to `COc1ccc(NCC(=O)O[C@@H]2CC[C@]3(CO3)[C@@H]([C@@]3(C)OC3CC=C(C)C)[C@@H]2OC)cc1` (some centres unmarked) [Ex. 1, 6-O-(4-methoxyaniline)acetyl fumagillol], the IC50 is 0.0071 ng/mL (≈ 0.0159 nM).

Consider `COc1cc(NCC(=O)O[C@@H]2CC[C@]3(CO3)[C@@H]([C@@]3(C)OC3CC=C(C)C)[C@@H]2OC)cc(OC)c1OC` (some centres unmarked) [Ex. 2, 6-O-(3,4,5-trimethoxyaniline)acetyl fumagillol], for which the IC50 came out at 0.15 ng/mL (≈ 0.297 nM).

Regarding `COc1ccc(NCC(=O)O[C@@H]2CC[C@]3(CO3)[C@@H]([C@@]3(C)OC3CC=C(C)C)[C@@H]2OC)c(OC)c1` (some centres unmarked) [Ex. 3, 6-O-(2,4-dimethoxyaniline)acetyl fumagillol], the IC50 came out at 0.09 ng/mL (≈ 0.189 nM).

Consider `COc1cc(NCC(=O)O[C@@H]2CC[C@]3(CO3)[C@@H]([C@@]3(C)OC3CC=C(C)C)[C@@H]2OC)c([N+](=O)[O-])cc1OC` (some centres unmarked) [Ex. 5, 6-O-(3,4-dimethoxy-6-nitroaniline)acetyl fumagillol], for which the IC50 stood at 142 ng/mL (≈ 273 nM).

`COc1cc(C#N)c(NCC(=O)O[C@@H]2CC[C@]3(CO3)[C@@H]([C@@]3(C)OC3CC=C(C)C)[C@@H]2OC)cc1OC` (some centres unmarked) [Ex. 6, 6-O-(3,4-dimethoxy-6-cyanoaniline)acetyl fumagillol]: the IC50 stood at 19 ng/mL (≈ 38 nM).

For `C=CCOc1ccc(NCC(=O)O[C@@H]2CC[C@]3(CO3)[C@@H]([C@@]3(C)OC3CC=C(C)C)[C@@H]2OC)cc1` (some centres unmarked) [Ex. 7, 6-O-(4-allyloxyaniline)acetyl fumagillol], the IC50 was found to be 21 ng/mL (≈ 44.5 nM).

Consider `CO[C@@H]1[C@H](OC(=O)CNc2ccc(OCCOC(C)=O)cc2)CC[C@]2(CO2)[C@H]1[C@@]1(C)OC1CC=C(C)C` (some centres unmarked) [Ex. 8, 6-O-(4-(2-acetoxyethoxy)aniline)acetyl fumagillol], for which the IC50 was 42 ng/mL (≈ 81.1 nM).

For `COc1ccc(NCC(=O)O[C@@H]2CC[C@]3(CO3)[C@@H]([C@@]3(C)OC3CC=C(C)C)[C@@H]2OC)cc1C#N` (some centres unmarked) [Ex. 9, 6-O-(3-cyano-4-methoxyaniline)acetyl fumagillol], the IC50 was 0.63 ng/mL (≈ 1.34 nM).

On to `COc1ccc(NCC(=O)O[C@@H]2CC[C@]3(CO3)[C@@H]([C@@]3(C)OC3CC=C(C)C)[C@@H]2OC)cc1CN(C)C` (some centres unmarked) [Ex. 10, 6-O-(3-(dimethylaminomethyl)-4-methoxyaniline)acetyl fumagillol], for which the IC50 came out at 0.06 ng/mL (≈ 0.119 nM).

For `CO[C@@H]1[C@H](OC(=O)CNc2ccc(OCC(C)C)cc2)CC[C@]2(CO2)[C@H]1[C@@]1(C)OC1CC=C(C)C` (some centres unmarked) [Ex. 11], the IC50 stood at 0.08 ng/mL (≈ 0.164 nM).

Regarding `COc1ccc(NCC(=O)O[C@@H]2CC[C@]3(CO3)[C@@H]([C@@]3(C)OC3CC=C(C)C)[C@@H]2OC)cc1OC(C)C` (some centres unmarked) [Ex. 12, 6-O-(3-isopropoxy-4-methoxyaniline)acetyl fumagillol], the IC50 worked out at 0.07 ng/mL (≈ 0.139 nM).

On to `COc1c(C(C)C)cc(NCC(=O)O[C@@H]2CC[C@]3(CO3)[C@@H]([C@@]3(C)OC3CC=C(C)C)[C@@H]2OC)cc1C(C)C` (some centres unmarked) [Ex. 14, 6-O-(3,5-diisopropyl-4-methoxyaniline)acetyl fumagillol], for which the IC50 worked out at 14 ng/mL (≈ 26.4 nM).

With `COc1c(C)cc(NCC(=O)O[C@@H]2CC[C@]3(CO3)[C@@H]([C@@]3(C)OC3CC=C(C)C)[C@@H]2OC)cc1C` (some centres unmarked) [Ex. 15, 6-O-(3,5-dimethyl-4-methoxyaniline)acetyl fumagillol], the IC50 came out at 0.06 ng/mL (≈ 0.127 nM).

Regarding `CCOc1cc(C)c(NCC(=O)O[C@@H]2CC[C@]3(CO3)[C@@H]([C@@]3(C)OC3CC=C(C)C)[C@@H]2OC)cc1C(C)C` (some centres unmarked) [Ex. 16, 6-O-(3-isopropyl-4-ethoxy-6-methylaniline)acetyl fumagillol], the half-maximal inhibitory concentration (IC50) was 0.17 ng/mL (≈ 0.33 nM).

In the case of `CCCOc1ccc(NCC(=O)O[C@@H]2CC[C@]3(CO3)[C@@H]([C@@]3(C)OC3CC=C(C)C)[C@@H]2OC)cc1` (some centres unmarked) [Ex. 17, 6-O-(4-propyloxyaniline)acetyl fumagillol], the IC50 is 0.61 ng/mL (≈ 1.29 nM).

With `CO[C@@H]1[C@H](OC(=O)CNc2ccc(Cl)cc2)CC[C@]2(CO2)[C@H]1[C@@]1(C)O[C@@H]1CC=C(C)C` [Ex. 19, 6-O-(4-chloroaniline)acetyl fumagillol], the IC50 was 174 ng/mL (≈ 387 nM).

As to `CO[C@@H]1[C@H](OC(=O)CNc2ccc(O)cc2)CC[C@]2(CO2)[C@H]1[C@@]1(C)OC1CC=C(C)C` (some centres unmarked) [Ex. 21, 6-O-(4-hydroxyaniline)acetyl fumagillol], the IC50 stood at 185 ng/mL (≈ 429 nM).

On to `CO[C@@H]1[C@H](OC(=O)CNc2ccc(N)cc2)CC[C@]2(CO2)[C@H]1[C@@]1(C)OC1CC=C(C)C` (some centres unmarked) [Ex. 22, 6-O-(4-aminoaniline)acetyl fumagillol], for which the IC50 amounted to 179 ng/mL (≈ 416 nM).

Take `CO[C@@H]1[C@H](OC(=O)CNc2ccc3c(c2)OCO3)CC[C@]2(CO2)[C@H]1[C@@]1(C)OC1CC=C(C)C` (some centres unmarked) [Ex. 23, 6-O-(3,4-methylenedioxyaniline)acetyl fumagillol]: the IC50 amounted to 0.24 ng/mL (≈ 0.522 nM).

In the case of `CO[C@@H]1[C@H](OC(=O)CNc2ccc([N+](=O)[O-])cc2)CC[C@]2(CO2)[C@H]1[C@@]1(C)OC1CC=C(C)C` (some centres unmarked) [Ex. 24, 6-O-(4-nitroaniline)acetyl fumagillol], the IC50 amounted to 181 ng/mL (≈ 393 nM).

Regarding `COc1ccc(NCC(=O)O[C@@H]2CC[C@]3(CO3)[C@@H]([C@@]3(C)OC3CC=C(C)C)[C@@H]2OC)c(OC)c1OC` (some centres unmarked) [Ex. 25], the IC50 was 0.31 ng/mL (≈ 0.613 nM).

For the molecule `COc1cc(NCC(=O)O[C@@H]2CC[C@]3(CO3)[C@@H]([C@@]3(C)OC3CC=C(C)C)[C@@H]2OC)cc(O)c1OC` (some centres unmarked) [Ex. 27, 6-O-(3,4-dimethoxy-5-hydroxyaniline)acetyl fumagillol], the IC50 amounted to 88 ng/mL (≈ 179 nM).

Turning to `CNCCOc1ccc(NCC(=O)O[C@@H]2CC[C@]3(CO3)[C@@H]([C@@]3(C)OC3CC=C(C)C)[C@@H]2OC)cc1` (some centres unmarked) [Ex. 30, 6-O-(4-ethylaminoethoxyaniline)acetyl fumagillol], the half-maximal inhibitory concentration (IC50) turned out to be 0.09 ng/mL (≈ 0.184 nM).

`CO[C@@H]1[C@H](OC(=O)CNc2ccc(C(F)(F)F)cc2)CC[C@]2(CO2)[C@H]1[C@@]1(C)OC1CC=C(C)C` (some centres unmarked) [Ex. 32, 6-O-(4-trifluoromethylaniline)acetyl fumagillol]: the IC50 came to 128 ng/mL (≈ 265 nM).

For the molecule `CO[C@@H]1[C@H](OC(=O)CNc2ccc(OC(C)=O)cc2)CC[C@]2(CO2)[C@H]1[C@@]1(C)OC1CC=C(C)C` (some centres unmarked) [Ex. 33, 6-O-(4-acetoxyaniline)acetyl fumagillol], the IC50 was found to be 109 ng/mL (≈ 230 nM).

Take `CO[C@@H]1[C@H](OC(=O)CNc2ccc(C#N)cc2)CC[C@]2(CO2)[C@H]1[C@@]1(C)OC1CC=C(C)C` (some centres unmarked) [Ex. 34, 6-O-(4-cyanoaniline)acetyl fumagillol]: the IC50 turned out to be 98 ng/mL (≈ 222 nM).

`CO[C@@H]1[C@H](OC(=O)CNc2ccc(OCCO)cc2)CC[C@]2(CO2)[C@H]1[C@@]1(C)OC1CC=C(C)C` (some centres unmarked) [Ex. 35, 6-O-(4-hydroxyethoxyaniline)acetyl fumagillol]: the IC50 was determined as 116 ng/mL (≈ 244 nM).

As to `COc1ccc(NCC(=O)O[C@@H]2CC[C@]3(CO3)[C@@H]([C@@]3(C)OC3CC=C(C)C)[C@@H]2OC)cn1` (some centres unmarked) [Ex. 36, 6-O-(5-amino-2-methoxypyridine)acetyl fumagillol], the IC50 was 0.021 ng/mL (≈ 0.047 nM).

For `COc1ccc(NCC(=O)O[C@@H]2CC[C@]3(CO3)[C@@H]([C@@]3(C)OC3CC=C(C)C)[C@@H]2OC)nn1` (some centres unmarked) [Ex. 38, 6-O-(3-methoxy-6-aminopyridazine)acetyl fumagillol], the IC50 was determined as 0.019 ng/mL (≈ 0.0425 nM).

In the case of `CCNCC(=O)O[C@@H]1CC[C@]2(CO2)[C@@H]([C@@]2(C)OC2CC=C(C)C)[C@@H]1OC` (some centres unmarked) [Ex. 41, 6-O-(ethylamino)acetyl fumagillol], the IC50 came out at 20 ng/mL (≈ 54.4 nM).

On to `CO[C@@H]1[C@H](OC(=O)CNC(C)C)CC[C@]2(CO2)[C@H]1[C@@]1(C)OC1CC=C(C)C` (some centres unmarked) [Ex. 42, 6-O-(isopropylamino)acetyl fumagillol], for which the IC50 came out at 12 ng/mL (≈ 31.5 nM).

Still in this assay, the particulars now being: Homo sapiens; HUVEC growth, cultured 2–3 days with compound, absorption at 490 nm; read-out: IC50.
In the case of `COc1ccc(NCC(=O)O[C@@H]2CC[C@]3(CO3)[C@@H]([C@@]3(C)OC3CC=C(C)C)[C@@H]2OC)cc1OC` (some centres unmarked) [Ex. 4, 6-O-(3,4-dimethoxyaniline)acetyl fumagillol], the IC50 was found to be 0.08 ng/mL (≈ 0.168 nM).

As to `CO[C@@H]1[C@H](OC(=O)CNc2ccccc2)CC[C@]2(CO2)[C@H]1[C@@]1(C)OC1CC=C(C)C` (some centres unmarked) [Ex. 18, 6-O-(aniline)acetyl fumagillol], the IC50 stood at 17 ng/mL (≈ 40.9 nM).

Regarding `CO[C@@H]1[C@H](OC(=O)CNc2ccc(N(C)C)cc2)CC[C@]2(CO2)[C@H]1[C@@]1(C)OC1CC=C(C)C` (some centres unmarked) [Ex. 20, 6-O-(4-dimethylaminoaniline)acetyl fumagillol], the IC50 was 162 ng/mL (≈ 353 nM).

With `COc1cnc(NCC(=O)O[C@@H]2CC[C@]3(CO3)[C@@H]([C@@]3(C)OC3CC=C(C)C)[C@@H]2OC)nc1` (some centres unmarked) [Ex. 37, 6-O-(5-methoxypyrimidine-2-amino)acetyl fumagillol], the IC50 amounted to 0.017 ng/mL (≈ 0.038 nM).

Still in this assay, the particulars now being: relative to TNP-470.
Turning to `COc1ccc(NCC(=O)O[C@@H]2CC[C@]3(CO3)[C@@H]([C@@]3(C)OC3CC=C(C)C)[C@@H]2OC)cc1` (some centres unmarked) [Ex. 1, 6-O-(4-methoxyaniline)acetyl fumagillol], the “inhibitory effect on HUVEC, times greater than TNP-470” value was found to be 2000 times.

What is called IC50 is the concentration that gives 50% inhibition.
